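1) Cells in 96-well plates. 2) Compound, 48 h, 5 concentrations. 3) Linear interpolation between surrounding doses. 4) Unreached endpoint = highest concentration. GI50 marks 50% less growth. TGI: concentration producing complete growth inhibition.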
Experiments:
Experiment in all cases: NCI tumour cell line growth inhibition, 48 h
OVCAR-8 ovarian = test system: OVCAR-8 ovarian
U251 CNS = test system: U251 CNS
UO-31 renal = test system: UO-31 renal
A549 NSCLC = test system: A549 NSCLC
SF-268 CNS = test system: SF-268 CNS
MOLT-4 leukemia = test system: MOLT-4 leukemia
LOX IMVI melanoma = test system: LOX IMVI melanoma
786-0 renal = test system: 786-0 renal
OVCAR-4 ovarian = test system: OVCAR-4 ovarian
IGROV1 ovarian = test system: IGROV1 ovarian
HCT-15 colon = test system: HCT-15 colon
TK-10 renal = test system: TK-10 renal
RXF 393 renal = test system: RXF 393 renal
A498 renal = test system: A498 renal
SR leukemia = test system: SR leukemia
SK-OV-3 ovarian = test system: SK-OV-3 ovarian
DU-145 prostate = test system: DU-145 prostate
NCI-H226 lung = test system: NCI-H226 lung
K-562 leukemia = test system: K-562 leukemia
SNB-75 CNS = test system: SNB-75 CNS
OVCAR-5 ovarian = test system: OVCAR-5 ovarian
T-47D breast = test system: T-47D breast
UACC-62 melanoma = test system: UACC-62 melanoma
HL-60(TB) leukemia = test system: HL-60(TB) leukemia
MALME-3M melanoma = test system: MALME-3M melanoma
UACC-257 melanoma = test system: UACC-257 melanoma
MDA-MB-435 = test system: MDA-MB-435
OVCAR-3 ovarian = test system: OVCAR-3 ovarian
SNB-19 CNS = test system: SNB-19 CNS

For CCN(CC)c1ccc(/C=C/c2ccc3cc(C)ccc3[n+]2CC)cc1, the TGI (OVCAR-8 ovarian) was 12600 nM, the GI50 (U251 CNS) was 44.1 nM and the TGI (U251 CNS) was 14500 nM. The GI50 (UO-31 renal) was 691 nM, the TGI (UO-31 renal) was 7450 nM and the GI50 (A549 NSCLC) was 119 nM. For the same compound, the TGI (A549 NSCLC) was 14600 nM, the GI50 (SF-268 CNS) was 406 nM and the TGI (SF-268 CNS) was 16500 nM. For the same compound, the GI50 (MOLT-4 leukemia) was 161 nM, the TGI (MOLT-4 leukemia) was 2650 nM and the GI50 (LOX IMVI melanoma) was 66.6 nM. The TGI (LOX IMVI melanoma) was 1200 nM, the GI50 (786-0 renal) was 295 nM and the TGI (786-0 renal) was 6460 nM. For the same compound, the GI50 (OVCAR-4 ovarian) was 46.8 nM, the TGI (OVCAR-4 ovarian) was 12100 nM and the GI50 (IGROV1 ovarian) was 201 nM. It also gave a TGI (IGROV1 ovarian) of 18100 nM, a GI50 (HCT-15 colon) of 1320 nM and a TGI (HCT-15 colon) of 12900 nM. The GI50 (TK-10 renal) was 146 nM, the TGI (TK-10 renal) was 11800 nM and the GI50 (RXF 393 renal) was 216 nM. It also gave a TGI (RXF 393 renal) of 3410 nM, a GI50 (A498 renal) of 149 nM and a TGI (A498 renal) of 1780 nM. The GI50 (SR leukemia) was 90 nM, the TGI (SR leukemia) was 2280 nM and the GI50 (SK-OV-3 ovarian) was 141 nM. For the same compound, the TGI (SK-OV-3 ovarian) was 732 nM, the GI50 (DU-145 prostate) was 94.2 nM and the TGI (DU-145 prostate) was 12700 nM. The GI50 (NCI-H226 lung) was 152 nM, the TGI (NCI-H226 lung) was 9850 nM and the GI50 (K-562 leukemia) was 36 nM. For the same compound, the TGI (K-562 leukemia) was 13500 nM, the GI50 (SNB-75 CNS) was 161 nM and the TGI (SNB-75 CNS) was 6240 nM. For the same compound, the GI50 (OVCAR-5 ovarian) was 309 nM, the TGI (OVCAR-5 ovarian) was 16800 nM and the GI50 (T-47D breast) was 18.2 nM. It also gave a TGI (T-47D breast) of 1410 nM, a GI50 (UACC-62 melanoma) of 152 nM and a TGI (UACC-62 melanoma) of 1370 nM. It also gave a GI50 (HL-60(TB) leukemia) of 29.7 nM, a TGI (HL-60(TB) leukemia) of 429 nM and a GI50 (MALME-3M melanoma) of 149 nM. It also gave a TGI (MALME-3M melanoma) of 1330 nM, a GI50 (UACC-257 melanoma) of 116 nM and a TGI (UACC-257 melanoma) of 1280 nM. The GI50 (MDA-MB-435) was 113 nM, the TGI (MDA-MB-435) was 1280 nM and the GI50 (OVCAR-3 ovarian) was 75 nM. The TGI (OVCAR-3 ovarian) was 995 nM, the GI50 (SNB-19 CNS) was 62.1 nM and the TGI (SNB-19 CNS) was 13400 nM.

Reference: PubChem BioAssay (NCI)
